Reference: patent US7132590B2, “Methods of making male-sterile plants by underexpressing allene oxide synthase” (The Arizona Board of Regents on Behalf of the University of …, priority 2001, dated 2006)
Entries after “also recorded” stand apart in the source; their conditions may differ.

Key:
[1] = tested on: male-sterile mutant (dad1); conditions: Ishiguro et al. (2001); cited from earlier work
Arabidopsis aos mutant = assay type: in vivo, Arabidopsis thaliana; conditions: for rescue of male sterile phenotype (silique elongation, fertility) of aos mutant: flower buds of 4 week old plants, twice a day for two days, 1% LA or 2 mM MeJA sprayed, 1 mM OPDA dipped, siliques monitored two weeks; for time after application at which aos mutant siliques started to elongate / time for aos mutant siliques to reach the wild-type silique size: after OPDA and MeJA spraying
Protocol: Application of linolenic acid (LA; Cayman Chemical, USA) and methyl jasmonate (MeJA; Sigma-Aldrich, USA) to recover male sterility of Arabidopsis aos mutant was done by spraying 1% of LA and 2 mM MeJA directly on Arabidopsis flower buds of 4 week old plants grown under long day condition. Oxo-phytodienoic acid (OPDA; Cayman Chemical, USA) was applied by dipping of floral buds in the 1 mM OPDA and 0.01% TritonX-100 (Sigma-Aldrich, USA) solution. These plants were sprayed twice a day for two days. The plants were monitored for silique production over the next two weeks.
The AOS gene is important in jasmonate biosynthesis because it catalyzes the most upstream step in the JA-specific biosynthetic pathway (FIG. 1).

[2] = tested on: triple mutant (fad3-2/fad7-2/fad8); conditions: mutant lacking hexadecatrienoic acid (16:3) and LA (18:3); McConn and Browse (1996); cited from earlier work

| SMILES | rescue of sterility phenotype [1] | rescue of male sterile phenotype (silique elongation, fertility) of aos mutant (Arabidopsis aos mutant) | rescue of male sterility [2] | time after application at which aos mutant siliques started to elongate (Arabidopsis aos mutant) | time for aos mutant siliques to reach the wild-type silique size (Arabidopsis aos mutant) |
| --- | --- | --- | --- | --- | --- |
| CC/C=C\C[C@H]1C(=O)CC[C@@H]1CC(=O)O [jasmonic acid, Jasmonic acid] | could be rescued | restoration of essentially wild-type siliques and recovered fertility | could be rescued | – | – |
| CC/C=C\CC1C(=O)CCC1CC(=O)OC (stereo not drawn) [MeJA, methyl jasmonate] | – | rescued to wild-type; also recorded: can rescue the aos male sterile phenotype | – | Two | in a week |
| CC/C=C\C[C@@H]1C(=O)C=C[C@@H]1CCCCCCCC(=O)O [OPDA, Oxo-phytodienoic acid] | – | rescued to wild-type | – | Two | in a week |
